Assay results taken from article PMC9014415, “Repositioning of a Diaminothiazole Series Confirmed to Target the Cyclin-Dependent Kinase CRK12 for Use in the Treatment of African Animal Trypanosomiasis” (Journal of Medicinal Chemistry, 2022).
Several values for one entry are separate records, joined by “and”; a condition that tells them apart may be missing. Identical values can stand only once. Entries after “also recorded” stand apart in the source; their conditions may differ. Blank lines part the entries; values can stand above or below the compound they belong to.

Tests used:
T. congolense [1] = assay: In vitro drug sensitivity assay, T. congolense (IL3000); format: cell-based; conditions: Trypanosoma congolense; IL3000 strain
Experimental: 1.2 In vitro drug sensitivity assays - Trypanosoma congolense
EC50 values for test compounds against T. congolense (IL3000 strain) were conducted as previously described3 with minor modifications.4 Briefly, trypanosome cell densities were determined using a CASY cell counter (Schärfe) and diluted to a seeding density of 2 x 105 trypanosomes/mL. BSF trypanosomes were grown in HMI-9 (IMDM) media supplemented with 20% (v/v) bovine serum.1 Test compounds were resuspended to a final concentration of 10 mg/mL in DMSO. Assays plates were incubated at 34 °C with 5 % CO2, for a total of 69 h, prior to addition of 10 µL of Resazurin (12.5 mg in 100 mL phosphate buffered saline, Aldrich) into each well, followed by a further 3 h incubation. Absorbance was read using a SpectraMax (Gemini XS) fluorescence reader at an excitation wavelength of 536 nm and an emission wavelength of 588 nm. EC50 values were determined using SOFTmax Pro 5.2 analysis software. All experiments were conducted with technical duplicates, and at least three biological replicates. […]

[2] = Bovine liver microsome stability; format: in vitro ADME; conditions: intrinsic clearance
Experimental: 2.2 Microsomal stability studies […]
(b) Bovine liver microsome stability. Test compounds (0.5 µM) were incubated with 0.5 mg/mL bovine liver microsomes (Xenotech LLC TM) in 50 mM potassium phosphate buffer, pH7.4 and the reaction initiated upon addition of excess NADPH (8 mg/mL in 50 mM potassium phosphate buffer, pH7.4).
Aliquots (50 µL) of the incubation mixture were taken at time zero, 3, 6, 9, 15 and 30 min then mixed with acetonitrile (100 µL) to stop the reaction. An internal standard was added to all samples, prior to centrifugation (10 min, 1,665 g, RT) to sediment precipitated protein. Reaction plates were then sealed prior to UPLCMSMS analysis using a Quattro Premier XE (Waters corporation, USA).
XLfit (IDBS, UK) was used to calculate the exponential decay and consequently the rate constant (k) from the ratio of peak area of test compound to internal standard at each timepoint. The rate of intrinsic clearance (CLi) of each test compound was then calculated using the following […]
CLi(mL/min/g liver) = k x V x microsomal protein yield
Where V (mL/mg protein) is the incubation volume/ mg protein added and microsomal protein yield is taken as 52.5 mg protein/ g of liver. Verapamil (0.5 µM) was used as a positive control to confirm acceptable assay performance. […]

T. congolense [3] = assay: NMRI mouse efficacy model, T. congolense; format: in vivo, Trypanosoma congolense; conditions: for Efficacy, T. congo / Efficacy at 10 mg/kg SC for 4 days, T. congo: mice; for Efficacy at 10 mg/kg SC for 4 days, T. congo: 10 mg/kg SC once daily for 4 days
Experimental: (§1) 3. In vivo efficacy studies
(§2) The T. congolense (IL3000) and T. vivax (ILRAD V34) cell lines7, 8, both originating from Kenya, were used in the following in vivo mouse studies. For studies in cattle, either Trypanosoma congolense (savannah) KONT 2/133, 224) or T. vivax STIB 719 was used.
(§3) 3.1 Mouse efficacy studies for T. brucei brucei.
(§4) Mouse efficacy studies for T. brucei brucei were carried out as previously detailed.9 3.2 NMRI mouse efficacy studies for T. congolense and T. vivax.
(§5) Mouse models of infections were carried out using standardized protocols. Briefly, 1 mL samples of cryopreserved T. congolense, or T. vivax-infected blood harvested directly from an infected mouse, were diluted with Hanks Balanced Salt Solution plus 20 mM glucose (HBSS+G) to 5 x 10^4 trypomastigotes/mL (5 x 105 for T. vivax). Female mice (NMRI) were inoculated IP on day 0 with 0.2 mL/animal (equivalent to ~ 1 x 104 T. congolense or ~ 1 x 105 T. vivax per animal). The level of parasitaemia was inspected microscopically on day 3 using tail blood smears, counting 20 high powered fields (× 400 magnification). For untreated or treated animals whose tail smears exceeded 50 parasites/field, precise parasite levels were established using a Neubauer haemocytometer; mice with a parasite burden over 1 x 108 were promptly and humanely terminated (T. congolense only, from our experience the mice will not survive for a further 24 h). Alternatively, in the case of T. vivax-infected mice the immune system will bring the infection to a sub-lethal level (below limit of detection) […]
(§6) followed by cycles of high and low parasitaemia. Eventually mice infected with T. vivax succumb to the infection between 30 – 60 days post-infection.
(§7) Suppression of parasitaemia - mouse
(§8) On day 3 post-infection, animals were randomly allocated to groups, with 3 mice/group. Infected animals were dosed with one of the following: diaminazene diaceturate IP. – 40 mg/kg once only as a control (early-stage trypanocide used to clear the parasites in the systemic circulation and in tissues other than CNS), compound 1 (SC) at 3, 10, 30 and 50 mg free base/kg twice and once daily for 4 d or a single dose, or compound 2 (SC) at 3 and 10 mg free base /kg once daily for 4 d, once daily for 2 d or a single dose, one group of 3 mice acted as an untreated control group. The dose solutions were prepared daily, using 5% DMSO: 40% PEG400: 55% MilliQ H2O for test compounds and 10% DMSO: 90% peanut oil for standard drugs. Alternatively, compound 2 was delivered for 48 h via SC implanted ALZET osmotic pumps (6, 12, 25 and 50 mg free base/mL, vehicle: 50% DMSO […]
(§9) and 50% deionized water).
(§10) Response to treatment was determined by monitoring parasitaemia twice a week until day 21.
(§11) After day 21, the mice were checked once a week until 63 d post-treatment. Mice surviving to the end of the experiment, and with blood smears clear of parasites, were considered cured. […]
(§12) The parasites were obtained from a donor calf. This isolate is resistant to diminazene (20 mg/kg) and isometamidium (1 mg/kg) in cattle, and diminazene (7 mg/kg) and isometamidium (>1 mg/kg) in mice. Calves were parasitaemic by study day 6. Calves (n = 5) were treated with compound 1 (5 mg/kg, SC, twice 12 h apart) on study

T. vivax = assay: NMRI mouse efficacy model, T. vivax; format: in vivo, Trypanosoma vivax; conditions: for Efficacy, T. vivax / Efficacy at 10 mg/kg SC for 4 days, T. vivax: mice; for Efficacy at 10 mg/kg SC for 4 days, T. vivax: 10 mg/kg SC once daily for 4 days
Experimental: as §1, §2, §3, §4, §5, §6, §7, §8, §9, §10, §11, §12

L6 cells = assay: Cytotoxicity assay, rat skeletal myoblasts (L6); format: cell-based
Experimental: 1.4 Cytotoxicity assays – Rat skeletal myoblasts (L6)
The cytotoxicity of test compounds was evaluated using a rat skeletal myoblast (L6) cell line, as previously described3, but with minor modifications. Cells were grown in RPMI media supplemented with 10% (v/v) fetal calf serum. L6 cells at a seeding density of 2 x 10^4 cells/mL were incubated in microtiter plates overnight at 37 °C and 5 % CO2 until adherent. The following day, test compounds were added to the plates (3-fold serial dilutions), prior to incubation for 69 h. Following incubation, 10 µL of Resazurin (12.5 mg in 100 mL phosphate buffered saline, Aldrich) was added to each well and the plates were incubated for a further 3 h. The plates were read using a SpectraMax (Gemini XS) fluorescence reader at an excitation wavelength of 536 nm and an emission wavelength of 588 nm. EC50 values were determined using SOFTmax Pro 5.2 analysis software. All experiments were conducted as technical replicates, with at least three biological replicates. […]

SMILES: CC(C)CS(=O)(=O)N[C@H]1CC[C@H](Nc2nc(N)c(C(=O)c3c(F)cccc3F)s2)CC1 [Compound 1, N-((trans)-4-((4-Amino-5-(2,6-difluorobenzoyl)thiazol-2-yl)amino)cyclohexyl)-2-methylpropane-1-sulfonamide]
EC50 (T. congolense [1]): 18 nM
Bovine Microsome Cli (BLM: bovine microsomal clearance) [2]: <0.5 / 0.5 mL/min/g and <0.5 mL/min/g
Acute T. congolense efficacy in mice (T. congolense [3]; 3 mg/kg bid SC for 4 days): Partial cure (2/3)
Acute T. congolense efficacy in mice (T. congolense [3]; 10 mg/kg bid SC for 4 days): Full cure
T. congolense efficacy in mice (T. congolense [3]; 10 mg/kg once daily for 4 days, SC): sterile cure
Acute T. congolense efficacy in mice (T. congolense [3]; 30 mg/kg, single dose, SC): Partial cure: (2/3)
Acute T. congolense efficacy in mice (T. congolense [3]; 50 mg/kg single dose, SC): sterile cure; also recorded: Full cure
Acute T. vivax efficacy in mice (T. vivax; 3 mg/kg bid SC for 4 days): Full cure
T. vivax efficacy in mice (T. vivax; 3 mg/kg once daily for 4 days, SC): sterile cure
Acute T. vivax efficacy in mice (T. vivax; 10 mg/kg bid SC for 4 days): Full cure
Acute T. vivax efficacy in mice (T. vivax; 10 mg/kg, single dose, SC): Partial cure (1/3)
Acute T. vivax efficacy in mice (T. vivax; 30 mg/kg, single dose, SC): sterile cure; also recorded: Full cure

SMILES: CC(C)CS(=O)(=O)N[C@H]1CC[C@H](Nc2nc(N)c(C(=O)c3c(F)cc(CN(C)C)cc3F)s2)CC1 [Compound 2, N-(trans)-[4-[[4-Amino-5-[4-(dimethylaminomethyl)-2,6-difluoro-benzoyl]thiazol-2-yl]amino]cyclohexyl]-2-methyl-propane-1-sulfonamide]
EC50 (T. congolense [1]): 3.2 nM
EC50 (L6 cells): 3600 nM
Bovine Microsome Cli (BLM: bovine microsomal clearance) [2]: 1.1 mL/min/g
Efficacy in T. congolense-infected mice, implanted ALZET osmotic pumps (T. congolense [3]; SC pump delivery, all dose levels): cured; also recorded: full cure
Efficacy, T. congo (T. congolense [3]; 3 mg/kg (head: SC for 4 days)): Partial cure (2/3)
Efficacy at 10 mg/kg SC for 4 days, T. congo (T. congolense [3]; 10 mg/kg): fully curative; also recorded: Full cure; also recorded: Partial cure (1/3)
Efficacy, T. congo (T. congolense [3]; 10 mg/kg once daily for 2 days): Partial cure (2/3)
Efficacy, T. congo (T. congolense [3]; 10 mg/kg, regimen not restated, listed after the 3 mg/kg result): Full cure
Efficacy, T. vivax (T. vivax; 3 mg/kg for 4 days, 3 mg/kg): Full cure (3/3) 3 and 10 mg/kg for 4 days 10 mg/kg for 2 days; also recorded: Full cure (3/3); 3 and 10 mg/kg for 4 days, 10 mg/kg for 2 days
Efficacy at 10 mg/kg SC for 4 days, T. vivax (T. vivax; 10 mg/kg): fully curative; also recorded: Full cure (3/3) 3 and 10 mg/kg for 4 days 10 mg/kg for 2 days; also recorded: Full cure (3/3); 3 and 10 mg/kg for 4 days, 10 mg/kg for 2 days
Efficacy, T. vivax (T. vivax; 10 mg/kg for 2 days, 10 mg/kg): Full cure (3/3) 3 and 10 mg/kg for 4 days 10 mg/kg for 2 days; also recorded: Full cure (3/3); 3 and 10 mg/kg for 4 days, 10 mg/kg for 2 days

EC50 (T. congolense [1]): 1.3 nM
Bovine Microsome Cli (BLM: bovine microsomal clearance) [2]: 0.5 mL/min/g
SMILES: CNCc1cc(F)c(C(=O)c2sc(N[C@H]3CC[C@H](NS(=O)(=O)CC(C)C)CC3)nc2N)c(F)c1.Cl [Compound 8, N-((trans)-4-((4-Amino-5-(2,6-difluoro-4-((methylamino)methyl)benzoylthiazol-2-yl)amino)cyclohexyl))-2-methylpropane-1-sulfonamide Hydrochloride]
EC50 (L6 cells): 15000 nM
Efficacy at 10 mg/kg SC for 4 days, T. congo (T. congolense [3]): Full cure (3/3)
Efficacy at 10 mg/kg SC for 4 days, T. vivax (T. vivax): Full cure (3/3)

EC50 (T. congolense [1]): 0.4 nM
Bovine Microsome Cli (BLM: bovine microsomal clearance) [2]: 1.6 mL/min/g
SMILES: CC(C)CS(=O)(=O)N[C@H]1CC[C@H](Nc2nc(N)c(C(=O)c3c(Cl)cccc3Cl)s2)CC1 [Compound 10, N-((trans)-4-((4-Amino-5-(2,6-dichlorobenzoyl)thiazol-2-yl)amino)cyclohexyl)-2-methylpropane-1-sulfonamide]
EC50 (L6 cells): 3400 nM
Efficacy, T. congo (T. congolense [3]; 3 mg/kg (head: SC for 4 days)): Full cure (3/3) 3 mg/kg
Efficacy, T. vivax (T. vivax; 3 mg/kg for 4 days): Full cure (3/3) 3 mg/kg
